Laboratory results taken from patent EP2140864A2 (H. Lundbeck A/S, priority 2001, dated 2002).
Like-named read-outs stand apart in the source and are kept apart here.

Experiments:
human GAL1 receptor = target: T1, human GAL1 receptor (Homo sapiens, UniProt P47211); experiment: Radioligand binding at cloned human GAL1 receptor
T1 construct: expressed in transfected cells
T1 sequence (P47211 1-349): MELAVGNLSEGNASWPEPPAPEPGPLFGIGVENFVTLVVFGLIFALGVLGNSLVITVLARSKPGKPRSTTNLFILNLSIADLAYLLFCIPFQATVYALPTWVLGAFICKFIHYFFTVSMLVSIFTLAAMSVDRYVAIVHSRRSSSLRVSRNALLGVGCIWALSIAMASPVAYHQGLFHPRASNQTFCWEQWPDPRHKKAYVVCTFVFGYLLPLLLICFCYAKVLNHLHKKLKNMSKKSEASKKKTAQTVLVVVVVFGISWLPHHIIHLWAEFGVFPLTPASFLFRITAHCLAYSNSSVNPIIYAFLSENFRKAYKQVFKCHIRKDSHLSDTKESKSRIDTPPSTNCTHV
Procedure: The binding properties of the pyrimidines of the present invention were evaluated at the cloned human galanin receptors, GAL1, GAL2, and GAL3, using protocols described herein. […]
(§1) LM(tk-) cells were stably transfected with the human GAL1 or GAL3 receptor. CHO cells were stably transfected with the human GAL2 receptor.
(§2) cDNAs for the human and rat GAL1, and human and rat GAL3 receptors were transfected with a G-418 resistant gene into the mouse fibroblast LM(tk-) cell line by a calcium phosphate transfection method (Cullen, 1987). Stably transfected cells were selected with G-418. Human and rat GAL2 receptors were similarly transfected into CHO cells.
(§3) Membranes were harvested from stably transfected LM(tk-) cells. Adherent cells were washed twice in ice-cold phosphate buffered saline (138 mM NaCl, 8.1 mM Na2HPO4, 2.5 mM KCl, 1.2 mM KH2PO4, 0.9 mM CaCl2, 0.5 mM MgCl2, pH 7.4) and lysed by sonication in ice-cold sonication buffer (20 mM Tris-HCl, 5 mM EDTA, pH 7.7). Large particles and debris were cleared by low speed centrifugation (200 x g, 5 min, 4°C). Membranes were collected from the supernatant fraction by centrifugation (32,000 x g, 18 min, 4°C), washed with ice-cold hypotonic buffer, and collected again by centrifugation (32,000 x g, 18 min, 4°C). The final membrane pellet was resuspended by sonication into a small volume of ice-cold binding buffer (-1 ml for every 5 plates: 10 mM NaCl, 20 mM HEPES, 0.22 mM KH2PO4, 1.26 mM CaCl2, 0.81 mM MgSO4, pH 7.4). Protein concentration was measured by the Bradford method (Bradford, 1976) using Bio-Rad Reagent, with bovine serum albumin as a standard. Membranes were held on ice for up to one hour and used fresh, or flash frozen and stored in liquid nitrogen. Membranes were prepared similarly from CHO cells.
(§4) Galanin Recentors: Binding assays were performed according to the following published methods: human GAL3 (PCT International Publication No. WO 98/15570), human GAL1 (PCT International Publication No. WO 95/2260), human GAL2 (PCT International Publication No. WO 97/26853).
(§5) Binding data were analyzed using nonlinear regression and statistical techniques available in the GraphPAD Prism package (San Diego, CA). Enzymatic assay data were derived from a standard curve of reference compound data.

human GAL2 receptor = target: T2, human GAL2 receptor (Homo sapiens, UniProt O43603); experiment: Radioligand binding at cloned human GAL2 receptor
T2 construct: expressed in transfected cells
T2 sequence (O43603 1-387): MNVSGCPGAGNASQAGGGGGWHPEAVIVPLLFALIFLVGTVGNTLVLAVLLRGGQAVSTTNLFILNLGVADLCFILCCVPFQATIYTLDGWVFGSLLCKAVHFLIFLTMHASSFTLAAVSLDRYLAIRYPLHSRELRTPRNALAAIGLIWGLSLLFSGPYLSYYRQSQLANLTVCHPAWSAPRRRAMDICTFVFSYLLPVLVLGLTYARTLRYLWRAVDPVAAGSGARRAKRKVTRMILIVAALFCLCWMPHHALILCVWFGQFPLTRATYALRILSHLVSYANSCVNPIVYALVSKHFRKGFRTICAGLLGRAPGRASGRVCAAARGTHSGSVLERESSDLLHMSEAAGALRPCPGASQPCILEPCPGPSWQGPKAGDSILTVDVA
Procedure: The binding properties of the pyrimidines of the present invention were evaluated at the cloned human galanin receptors, GAL1, GAL2, and GAL3, using protocols described herein.
The binding properties of the indolones of the present invention were evaluated at the cloned human galanin receptors, GAL1, GAL2, and GAL3, using protocols described herein.
as §1, §2, §3, §4, §5

human GAL3 receptor = target: T3, human GAL3 receptor (Homo sapiens, UniProt O60755); experiment: Radioligand binding at cloned human GAL3 receptor
T3 construct: expressed in transfected cells
T3 sequence (O60755 1-368): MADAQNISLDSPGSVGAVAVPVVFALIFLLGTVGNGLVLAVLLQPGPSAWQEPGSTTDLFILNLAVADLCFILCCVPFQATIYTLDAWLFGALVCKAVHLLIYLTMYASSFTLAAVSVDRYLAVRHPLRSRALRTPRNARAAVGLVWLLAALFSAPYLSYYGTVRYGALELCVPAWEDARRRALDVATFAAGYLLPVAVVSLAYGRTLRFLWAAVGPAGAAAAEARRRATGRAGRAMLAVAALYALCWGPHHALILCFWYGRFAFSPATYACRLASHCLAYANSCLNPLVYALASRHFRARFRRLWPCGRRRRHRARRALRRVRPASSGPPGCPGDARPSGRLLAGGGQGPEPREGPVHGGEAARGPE
Summary of the method: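 Membranes from LM(tk-) cells stably expressing human GAL3, prepared in binding buffer (HEPES-based, pH 7.4), used for radioligand binding. Solvent at final assay concentration: 3% DMSO for indolones, 1% ethanol/0.09% pluronic F-127 for pyrimidines. Binding data analysed by nonlinear regression.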

[1] = indolones, cloned human receptor; read-out: Ki GalR3
[2] = pyrimidines, read-out: Ki GalR1
[3] = pyrimidines, read-out: Ki GalR2
[4] = pyrimidines, cloned human receptor; read-out: Ki GalR3

| Structure (SMILES) | Ki (human GAL1 receptor; [2]) [nM] | Ki (human GAL2 receptor; [3]) [nM] | Ki (human GAL3 receptor; [4]) [nM] | other results |
| --- | --- | --- | --- | --- |
| Cc1cc(C)cc(N=C2C(=O)N(c3ccccc3)c3ccccc32)c1 [Example 104] |  |  |  | Ki (human GAL1 receptor; indolones, read-out: Ki GalR1): > 10000 nM; Ki (human GAL2 receptor; indolones, read-out: Ki GalR2): > 10000 nM; Ki (human GAL3 receptor; [1]): 143 nM |
| Cc1ccc(Nc2cc(N3CCCCC3)nc(NC(C)Cc3c[nH]c4ccccc34)n2)cc1 (stereo not shown) [Example 20] | > 5000 | > 5000 | 164 |  |
| Cc1ccc(Nc2cc(N3CCN(c4ncccc4C(F)(F)F)CC3)nc(N3CCCCC3)n2)cc1 [Example 89] | 1120 | 1270 | 105 |  |
| COc1ccc(N2CCN(c3nc(Nc4ccc(C)cc4)cc(N4CCCCC4)n3)CC2)c(OC)c1 [Example 28] |  |  |  | Ki (human GAL1 receptor; read-out: Ki GalR1, pyrimidines): > 5000 nM; Ki (human GAL2 receptor; read-out: Ki GalR2, pyrimidines): > 5000 nM; Ki (human GAL3 receptor; read-out: Ki GalR3; pyrimidines, cloned human receptor): 270 nM |
| Cc1ccc(Nc2cc(N3CCCCC3)nc(N3CCN(c4ccccc4)CC3)n2)cc1 [Example 25] | > 5000 | 1500 | 548 |  |
| Cc1ccc(Nc2cc(N3CCCCC3)nc(N3CCc4ccccc4C3)n2)cc1 [Example 41] | 2130 | 840 | 151 |  |
| O=C1C(=Nc2ccc(F)cc2)c2ccccc2N1c1ccccc1 [Example 99, 3-[(4-FLUOROPHENYL)IMINO]-1-PHENYL-1,3-DIHYDRO-2H-INDOL-2-ONE] |  |  |  | Ki (human GAL1 receptor; indolones, read-out: Ki GalR1): > 10000 nM; Ki (human GAL2 receptor; indolones, read-out: Ki GalR2): > 10000 nM; Ki (human GAL3 receptor; [1]): 229 nM |
| FC(F)(F)c1cccnc1N1CCN(c2nc(NC3CC4CCC3C4)cc(N3CCCCC3)n2)CC1 (stereo not shown) [Example 36] | 442 | 90 | 93 |  |
| COc1ccccc1N=C1C(=O)N(c2ccccc2)c2ccccc21 [Example 91, 3-[(2-METHOXYPHENYL)IMINO]-1-PHENYL-1,3-DIHYDRO-2H-INDOL-2-ONE] |  |  |  | Ki (human GAL1 receptor; indolones, read-out: Ki GalR1): > 10000 nM; Ki (human GAL2 receptor; indolones, read-out: Ki GalR2): > 10000 nM; Ki (human GAL3 receptor; [1]): 527 nM |
| Cc1ccc(N=C2C(=O)N(c3ccccc3)c3ccccc32)cc1 [Example 96] |  |  |  | Ki (human GAL1 receptor; indolones, read-out: Ki GalR1): > 10000 nM; Ki (human GAL2 receptor; indolones, read-out: Ki GalR2): > 10000 nM; Ki (human GAL3 receptor; [1]): 111 nM |
| Cc1ccc(Nc2cc(N3CCCCC3)nc(Nc3ccc(Cl)cc3)n2)cc1 [Example 5] | > 5000 | > 5000 | 345 |  |
| Cc1ccc(Nc2cc(N(C)C)nc(N3CCc4ccccc43)n2)cc1 [Example 75] | 1460 | 2460 | 144 |  |
| O=C1C(=Nc2ccc(Oc3ccccc3)cc2)c2ccccc2N1c1ccccc1 [Example 100, 3-[(4-PHENOXYPHENYL)IMINO]-1-PHENYL-1,3-DIHYDRO-2H-INDOL-2-ONE] |  |  |  | Ki (human GAL1 receptor; indolones, read-out: Ki GalR1): > 10000 nM; Ki (human GAL2 receptor; indolones, read-out: Ki GalR2): > 10000 nM; Ki (human GAL3 receptor; [1]): 90 nM |
| Cc1ccc(Nc2cc(N(C)C)nc(Nc3ccccc3)n2)cc1Cl [Example 62] | > 5000 | > 5000 | 736 |  |
| CC1CCC(Nc2cc(N(C)C)nc(Nc3ccccc3)n2)CC1 (stereo not shown) [Example 67] | > 5000 | > 5000 | 752 |  |
| Cc1cccc(N=C2C(=O)N(c3ccccc3)c3ccccc32)c1 [Example 93] |  |  |  | Ki (human GAL1 receptor; indolones, read-out: Ki GalR1): > 10000 nM; Ki (human GAL2 receptor; indolones, read-out: Ki GalR2): > 10000 nM; Ki (human GAL3 receptor; [1]): 171 nM |
| CCN(CCc1c[nH]c2ccccc12)c1nc(Nc2ccc(C)cc2)cc(N2CCCCC2)n1 [Example 18] | 3590 | 543 | 40 |  |
| Cc1ccc(Nc2cc(N3CCCCC3)nc(N3CCN(c4c(C)cccc4C)CC3)n2)cc1 [Example 27] | 2690 | 272 | 63 |  |
| Cc1ccc(Nc2cc(N3CCCCC3)nc(N(C)C3CCCCC3)n2)cc1 [Example 1] | 668 | 188 | 35 |  |

| Structure (SMILES) | Ki (human GAL1 receptor; [2]) [nM] | Ki (human GAL2 receptor; [3]) [nM] | Ki (human GAL3 receptor; [4]) [nM] | other results |
| --- | --- | --- | --- | --- |
| COCCN(c1nc(Nc2ccc(C)cc2)cc(N(C)C)n1)C1CCCCC1 [Example 74] | 2290 | 468 | 47 |  |
| Cc1ccc(Nc2cc(N(C)C)nc(N3CCOCC3c3ccccc3)n2)cc1 (stereo not shown) [Example 82] | > 5000 | > 5000 | 232 |  |
| CN(C)c1cc(Nc2ccc(Cl)c(Cl)c2)nc(N(C)CCc2c[nH]c3ccccc23)n1 [Example 78] | 4940 | 1860 | 41 |  |
| Cc1ccc(Nc2cc(N3CCCCC3)nc(N(C)c3ccc(C)cc3)n2)cc1 [Example 7] | 1110 | 775 | 177 |  |
| Cc1ccc(Nc2cc(N(C)C)nc(N(C)C3CCCCC3)n2)cc1 [Example 73] |  | 1550 | 124 |  |
| Cc1ccc(Nc2cc(N3CCCCC3)nc(N3CCC(c4ccccc4)CC3)n2)cc1 [Example 24] |  | 3960 | 210 |  |
| Cc1ccc(Nc2cc(N3CCCCC3)nc(NCCc3c[nH]c4ccc(C)cc34)n2)cc1 [Example 8] |  | 795 | 264 |  |
| Cc1ccc(Nc2cc(N(C)C)nc(N3CCC(c4ccccc4)CC3)n2)cc1 [Example 81] |  | 4790 | 160 |  |
| COCCN(CCc1c[nH]c2ccccc12)c1nc(Nc2ccc(C)cc2)cc(N2CCCCC2)n1 [Example 19] |  | 1770 | 79 |  |
| CN(CCc1c[nH]c2ccccc12)c1nc(Nc2cccc(F)c2)cc(N2CCCCC2)n1 [Example 14] |  | 1340 | 54 |  |
| Cc1ccc(Nc2cc(N3CCCCC3)nc(NCCc3c[nH]c4ccccc34)n2)cc1 [Example 10] |  | 865 | 100 |  |
| Cc1ccc(Nc2cc(N3CCCCC3)nc(N3CCN(c4ncccn4)CC3)n2)cc1 [Example 37] |  | 903 | 343 |  |
| Cc1ccc(Nc2cc(N3CCCCC3)nc(N3CCN(c4ncccc4C)CC3)n2)cc1 [Example 31] |  | 3400 | 174 |  |
| Cc1ccc(Nc2cc(N3CCCCC3)nc(N3CCC(O)(c4ccccc4)CC3)n2)cc1 [Example 44] |  | 1020 | 133 |  |
| Cc1ccc(Nc2cc(N3CCCCC3)nc(N3CCN(c4ccccn4)CC3)n2)cc1 [Example 30] |  | 2610 | 197 |  |
| CCc1ccccc1N1CCN(c2nc(Nc3ccc(C)cc3)cc(N3CCCCC3)n2)CC1 [Example 26] |  | 4050 | 85 |  |
| Cc1ccc(Nc2cc(N(C)C)nc(N3CCN(c4ccccc4C)CC3)n2)cc1 [Example 85] |  | 4230 | 72 |  |
| COc1ccc2[nH]cc(CCNc3nc(Nc4ccc(C)cc4)cc(N4CCCCC4)n3)c2c1 [Example 9] |  | 2110 | 568 |  |
